{
  "source": "patent US7514432B2",
  "about": "“Compounds and methods of treating cell proliferative diseases, retinopathies and arthritis” (Exonhit Therapeutics SA, priority 2003, dated 2009)",
  "key": {"REF cells": {"test_system": "REF cells", "experiment": "Lamellipodia/ruffles formation after wounding", "type": "cell-based", "procedure": "This assay has been described by Nobes & Hall (J. Cell Biol., 1999). • Preparation of REF cells: REF cells are prepared from 15-18 E14 embryos. Briefly, the head, tail and viscerae are removed from the embryo. Only the torso is kept, sliced into small squares, washed, treated with trypsin-EDTA for 20 min. at 37° C., resuspended in medium, counted and plated. After 24 h, the cells are trypsinized and frozen in cryovials. 48 h before the wound healing assay, the cells are plated on coverslips. The day of the experiment, the cells are treated with the test compounds or DMSO alone. After 30 min., a scrape is done in the center of the coverslip using a small pipette tip. The cells are washed and fresh medium containing the compound or the DMSO is added. • Time-Lapse microscopy: The dishes containing the scraped coverslips and the treatment medium, sealed with parafilm is put under a thermostated microscope (37° C.) coupled to a video camera and a computer. Microscope images were collected every 5 minutes and recorded using the OpenLab software. When the assay is terminated (after 4 to 24 hours), pictures and movies are analyzed using the Metamorphe software. The pictures were calibrated (pixel converted to μm), and the velocity and total distance covered were calculated after tracking 7 to 10 single cells on the movies. […] The position of each point was recorded. […]"}, "[1]": {"test_system": "quiescent Swiss 3T3 cells", "experiment": "Compounds' effect on the actin cytoskeleton (Rac-induced ruffles)", "type": "cell-based", "details": "30 min pre-treatment, subtoxic doses; osmotic shock 10 min (50% H2O)", "procedure": "FIG. 1: Study of compounds effect on the actin cytoskeleton. Quiescent Swiss 3T3 cells were treated for 30 minutes with various concentrations of the compounds and were then submitted to osmotic shock by 10 min. incubation in a medium containing 50% H2O. Cells were subsequently fixed, permeabilized and labeled with Phalloidin TRITC. 100 to 200 cells were counted under a microscope, and the percentage of cells displaying lamellipodia and ruffles was evaluated.\nQuiescence of Swiss 3T3 cells: Cells are seeded at high density on coverslips in 5% FCS medium (special weak FCS). When cells become quiescent (after 6-10 days of culture), the medium is removed (a few microliters remaining in the well) and replaced with serum free medium. Cells are placed in the incubator overnight. […]\nImmunofluorescence • Fixation and permeabilization: Medium is aspirated from the culture wells and replaced with fixation buffer (BRB80: 80 mM KPipes pH 6.8, 2 mM MgCl2, 5 mM EGTA, 0.3% paraformaldehyde). […] Mounting is allowed to dry at 37° C. for 1 h. • Quantification of the effect of the compounds: The total number of cells is counted under the microscope (at least three different fields, e.g. between 100 and 200 cells). The number of cells bearing the morphological features of interest is evaluated. The percentage of cells bearing the morphological features of interest is then calculated."}},
  "data": [
    {"molecule": "Cl.Cl.O=c1cc(CN2CCOCC2)occ1OCCCCCSc1ccnc2cc(C(F)(F)F)ccc12", "note": "[EHT 1864, 5-(5-(7-(Trifluoromethyl)quinolin-4-ylthio)pentyloxy)-2-(morpholinomethyl)-4H-pyran-4-one dihydrochloride]", "values": [
      {"measurement": "lamellipodia/ruffles formation after wounding", "setting": "REF cells", "value": "dose-dependent inhibition of lamellipodia/ruffles formation"},
      {"measurement": "formation of ruffles induced by Rac after osmotic shock", "setting": "[1]", "value": "dose-dependently prevents formation of ruffles"}
    ]},
    {"molecule": "CN1CCN(Cc2cc(=O)c(OCCCCCSc3ccnc4cc(C(F)(F)F)ccc34)co2)CC1.Cl.Cl.Cl", "note": "[EHT 9241, 5-(5-(7-(Trifluoromethyl)quinolin-4-ylthio)pentyloxy)-2-((4-methylpiperazin-1-yl)methyl)-4H-pyran-4-one trihydrochloride]", "values": [
      {"measurement": "lamellipodia/ruffles formation after wounding", "setting": "REF cells", "value": "dose-dependent inhibition of lamellipodia/ruffles formation"},
      {"measurement": "formation of ruffles induced by Rac after osmotic shock", "setting": "[1]", "value": "dose-dependently prevents formation of ruffles"}
    ]}
  ]
}
